According to USRE46943E1, “Radioprotector compounds and methods” (PETER MACCALLUM CANCER INSTITUTE, priority 2010, dated 2018):

What was measured:
[1] = test system: transformed human keratinocyte cell line (FEP 1811); test: Clonogenic survival cell culture assay for radioprotective activity (12 Gy 137Cs gamma irradiation); assay type: cell-based; conditions: 12 Gy; for DMF10 (dose modification factor at a concentration of 10 microM of radioprotector): 10 microM radioprotector; for DMFm (dose modification factor at maximum protection): DMF=Dp/Dc at survival level Sm; for PF (protection factor = Sm/So): survival at maximum protection vs irradiation only
Source text: PF is defined as a ratio of survival at maximum protection Sm and survival after irradiation only So: PF=Sm/So. DMF is defined as a ratio of doses that result in survival level of Sm in the presence Dp and the absence Dc of radioprotector: DMF=Dp/Dc. DMF10 is define in a similar way except that instead of Sm a survival at 10 microM of radioprotector is used.
PF (Protection Factor) is defined as a ratio of survival at maximum protection Sm and survival after irradiation only So:PF=Sm/So. DMF (Dose Modification Factor) is defined as a ratio of doses that result in survival level of Sm in the presence (Dp) and the absence (Dc) of radioprotector: DMF=Dp/Dc. DMF10 is defined in a similar way except that instead of Sm a survival at 10 microM of radioprotector is used.
(§1) • i. […] In appropriate cases, tautomers are drawn to illustrate potential hydrogen-bond donating configurations into the minor groove of DNA. • ii. 2-Amino-4-(5′-(4″-methylpiperazin-1″-yl)benzimidazol-2′-yl)aniline was prepared by hydrogenation of 4-(5′-(4″-methylpiperazin-1″-yl)benzimidazol-2′-yl)-2-nitroaniline, using a modification of the method of Kelly et al, Aust. […] 2-Amino-4-(5′-(piperidin-1″-yl)benzimidazol-2′-yl)aniline was prepared by hydrogenation of 2-nitro-4-(5′-(piperidin-1″-yl)benzimidazol-2′-yl)aniline, using a modification of the method of Kelly et al, Aust. […] Ethyl 4-amino-3-nitrobenzenecarboximidate hydrochloride was prepared by reaction of 4-amino-3-nitrobenzonitrile with dry HCl gas in ethanol, using the method of Kelly et al, Aust. […] 5-(4′-Methylpiperazin-1′-yl)-2-nitroaniline was prepared using a modification of the method of Kelly et al, Aust. […] The following chemicals were obtained from the chemical suppliers indicated: 2-furaldehyde (Aldrich), 2-pyridinecarboxaldehyde (Aldrich), 3-fluoropyridine-2-carbaldehyde (Maybridge), 3-trifluoromethylpyridine-2-carboxaldehyde (Apollo Scientific), 6-methyl-2-pyridinecarboxaldehyde (Matrix Scientific), 5-methylpyridine-2-carbonitrile (Apollo Scientific), 4-methyl-2-pyridinecarbonitrile (Aldrich), 4-chloro-2-pyridinecarbonitrile (Aldrich), 4-methoxypicolinonitrile (Combi-Blocks), pyrazinecarbonitrile (Aldrich), 2-quinolinecarbonitrile (Aldrich), 3-isoquinolinecarbonitrile (Aldrich), 1-isoquinolinecarboxylic acid (Aldrich), indazole-3-carboxylic acid (Aldrich), 2-hydroxynicotinic acid (Aldrich), 4-hydroxypiperidine (Aldrich), 1-methylhomopiperazine (Aldrich), 3-hydroxypiperidine (Aldrich), 4-(N-BOC-amino)piperidine (Aldrich), 4-methoxypiperidine (Acros), 4-methyl-3-nitrobenzonitrile (Aldrich), 5-chloro-2-nitroaniline (Aldrich), 2-cyanopyridine (Aldrich), methyl 4-amino-2-methoxybenzoic acid (Aldrich), 4-(trifluoromethyl)-2-pyridinecarbonitrile (Matrix Scientific), cis-2,6-dimethylmorphoiline (Acros), 5-(trifluoromethyl)-2-pyridinecarbonitrile (Advanced Chemical Intermediates) and 5-fluoro-2-pyridinecarbonitrile (Advanced Chemical Intermediates). • ix. […] Melting points were determined using an Electrothermal melting point apparatus, and are uncorrected. […] The abbreviations s for singlet, d for doublet, t for triplet, q for quartet, br for broad and m for muitiplet were used in the assignments of multiplicity. A value approximating the centre of a multiplet is quoted. […] The addition of a few drops of acetic acid to methanol-d4 solutions was used to enhance solubility for the acquisition of ^13C nmr spectra. Mass spectra were recorded on a Micromass Quattro II mass spectrometer and accurate mass analyses were carried out by the School of Chemistry at the University of Melbourne on a Finnigan LTQ-FT model high resolution mass spectrometer. Thin layer chromatography (TLC) was carried out using Merck silica gel 60 F254 aluminium sheets or Merck neutral aluminium oxide 150 F254 sheets. Flash column chromatography was carried out using Ajax silica gel 230-400 mesh. • xi.

[2] = test system: transformed human keratinocyte cell line (FEP 1811); test: Clonogenic survival cell culture assay for cytotoxicity; assay type: cell-based; conditions: Homo sapiens, Keratinocyte, light or radiation study; un-irradiated keratinocytes, one hour drug exposure, colonies counted after eight days; read-out: C50 (concentration of radioprotector that results in 50% clonogenic survival)
Method: as §1, with “xi. […] The details are described in detail in Martin et al (4) (the disclosure of which is included herein in its entirety by way of reference), but briefly, mid-log phase monolayer cultures are incubated with various concentrations of the test drugs for one hour, after which the monolayers are washed and dispersed into single cell suspensions using pronase, and finally appropriate numbers of cells are dispensed into Petri dishes. Colonies are counted after eight days incubation. […] The irradiation (with a dose rate of 0.6 Gy per minute) is started 30 minutes after addition of the test drug. After completion of irradiation, incubation of cultures is continued until the total time of exposure to the drug reaches 60 minutes. Cultures are then washed and plated for clonogenic survival as described for the cytotoxicity experiments.” for “xi.”

| Structure (SMILES) | melting point | DMF10 (dose modification factor at a concentration of 10 microM of radioprotector) [1] | DMFm (dose modification factor at maximum protection) [1] | PF (protection factor = Sm/So) [1] | IC50 [2] |
| --- | --- | --- | --- | --- | --- |
| CN1CCN(c2ccc3nc(-c4ccc5nc(-c6ccco6)[nH]c5c4)[nH]c3c2)CC1 [Example 1, 2-(5′-(5″-(4′″-Methylpiperazin-1′″-yl)benzimidazol-2″-yl)benzimidazol-2′-yl)furan] | 202 to 224 °C (dec.) | 1.14 | 1.37 | 7.7 | 57.3 µM |
| CN1CCN(c2ccc3nc(-c4ccc5nc(-c6ncccc6F)[nH]c5c4)[nH]c3c2)CC1 [Example 3, 3-Fluoro-2-(5′-(5″-(4′″-methylpiperazin-1′″-yl)benzimidazol-2″-yl)benzimidazol-2′-yl)pyridine] | 201 to 214 °C | 1.40 | 1.80 | 15.3 | 93.1 µM |
| CN1CCN(c2ccc3nc(-c4ccc5nc(-c6ncccc6C(F)(F)F)[nH]c5c4)[nH]c3c2)CC1 [Example 4, 2-(5′-(5″-(4′″-Methylpiperazin-1′″-yl)benzimidazol-2″-yl)benzimidazol-2′-yl)-3-trifluoromethylpyridine] | 189 to 191 °C | 1.41 | 1.99 | 30.5 | 190 µM |
| Cc1ccnc(-c2nc3ccc(-c4nc5ccc(N6CCN(C)CC6)cc5[nH]4)cc3[nH]2)c1 [Example 7, 4-Methyl-2-(5′-(5″-(4′″-methylpiperazin-1′″-yl)benzimidazol-2″-yl)benzimidazol-2′-yl)pyridine] | 200 °C (dec.) | 2.36 | 2.55 | 183.8 | 130 µM |
| CN1CCN(c2ccc3nc(-c4ccc5nc(-c6cc(Cl)ccn6)[nH]c5c4)[nH]c3c2)CC1 [Example 8, 4-Chloro-2-(5′-(5″-(4′″-methylpiperazin-1′″-yl)benzimidazol-2″-yl)benzimidazol-2′-yl)pyridine] | 195 °C (dec.) | 2.12 | 2.20 | 39.6 | 80 µM |
| CNc1ccnc(-c2nc3ccc(-c4nc5ccc(N6CCN(C)CC6)cc5[nH]4)cc3[nH]2)c1 [Example 9, 4-Methylamino-2-(5′-(5″-(4′″-methylpiperazin-1′″-yl)benzimidazol-2″-yl)benzimidazol-2′-yl)pyridine] | 220 °C (dec.) | 1.14 | 1.55 | 7.1 | 59.9 µM |
| CN1CCN(c2ccc3nc(-c4ccc5nc(-c6cc(N(C)C)ccn6)[nH]c5c4)[nH]c3c2)CC1 [Example 10, 4-Dimethylamino-2-(5′-(5″-(4′″-methylpiperazin-1′″-yl)benzimidazol-2″-yl)benzimidazol-2′-yl)pyridine] | 216 to 220 °C | 1.39 | 1.51 | 10.1 | 18.6 µM |
| COc1ccnc(-c2nc3ccc(-c4nc5ccc(N6CCN(C)CC6)cc5[nH]4)cc3[nH]2)c1 [Example 11, 4-Methoxy-2-(5′-(5″-(4′″-methylpiperazin-1′″-yl)benzimidazol-2″-yl)benzimidazol-2′-yl)pyridine] | 190 °C (dec.) | 1.95 | 2.28 | 51.4 | 53.6 µM |
| CN1CCN(c2ccc3nc(-c4ccc5nc(-c6ccc(F)cn6)[nH]c5c4)[nH]c3c2)CC1 [Example 47, 5-fluoro-2-(5′-(5″-(4′″-methylpiperazin-1″-yl)benzimidazol-2″-yl)benzimidazol-2′-yl)pyridine] |  | 2.20 | 2.46 | 40.0 | 538 µM |
| C[C@@H]1CN(c2ccc3nc(-c4ccc5nc(-c6ccccn6)[nH]c5c4)[nH]c3c2)C[C@H](C)O1 [Example 52, 2-(5′-(5″-(cis-2′″,6′″-dimethylmorpholino)benzimidazol-2″-yl)benzimidazol-2′-yl)pyridine] |  | 1.40 | 1.75 | 55.9 | 134 µM |
| CN(CCO)c1ccc2[nH]c(-c3ccc4[nH]c(-c5ccccn5)nc4c3)nc2c1 [Example 54, 2-(5′-(5″-(3′″-hydroxyethyl-1′″-methylamino)benzimidazol-2″-yl)benzimidazol-2′-yl)pyridine] |  | 1.15 | 1.87 | 20.2 | 94.3 µM |
